Data on 7 compounds can be found in publication PMC9886266, “New [1,2,4]triazolo[4,3-c]quinazolines as intercalative Topo II inhibitors: Design, synthesis, biological evaluation, and in silico studies” (PLOS ONE, 2023).

Each structure is given as a SMILES string. Where two headings read alike, the source gives them in different places.

For series [1], the system named is HCT-116 cell line. Briefly: MTT anti-proliferative assay, HCT-116. Format: cell-based. Particulars: Homo sapiens, 48 h, three independent experiments, read-out: In vitro cytotoxicity IC50, HCT-116. How it is done:
(§1) In vitro antiproliferative activities of the target molecules were assessed against two human cancer cell lines namely, hepatocellular carcinoma (HepG2) and colorectal carcinoma (HCT-116) using MTT assay.
(§2) The anti-proliferative activity of the synthesized compounds was assessed using MTT assay protocol. A panel of human cancer cell lines namely, colorectal carcinoma (HCT-116) and hepatocellular carcinoma (HepG2) was used in this test. Doxorubicin was used as a positive control. The cell lines were got from ATCC (American Type Culture Collection) via the Holding company for biological products and vaccines (VACSERA, Cairo, Egypt). The anti-proliferative activities of the tested compounds were determined quantitatively as follows:
(§3) At first, the cells were cultured into a medium of RPMI-1640 with 10% fetal bovine serum. Then, two different antibiotics were added at 37°C in a 5% CO2 incubator: penicillin (100 units/mL) and streptomycin (100 μg/mL). Next, we seeded the cells in a 96-well plate by a density of 1.0 x 10^4 cells / well at 37°C for 48 h under 5% CO2. The synthesized compounds with different concentrations were applied into the cell lines and incubated for 48 h. After 48 h, 20 μl of MTT solution (5mg/mL) was added and incubated for 4 h. Then, DMSO (100 μl) was added into each well to dissolve the formed purple formazan. After that, a colorimetric assay was measured and recorded at absorbance of 570 nm using a plate reader (EXL 800, USA). The relative cell viability in percentage was calculated as (A570 of treated samples/A570 of untreated sample) X 100.
(§4) S2: Biological evaluation
(§5) S2.1. In vitro cytotoxic activity
(§6) The anti-proliferative activity of the synthesized compounds was assessed using MTT assay protocol. A panel of human cancer cell lines namely, colorectal carcinoma (HCT-116) and hepatocellular carcinoma (HepG2) was used in this test. As we targeted the DNA and Topo […]
(§7) cell lines were got from ATCC (American Type Culture Collection) via the Holding company for biological products and vaccines (VACSERA, Cairo, Egypt). The anti -proliferative activities of the tested compounds were determined quantitatively as follows:
(§8) At first, the cells were cultured into a medium of RPMI-1640 with 10% fetal bovine serum.
(§9) Then, two different antibiotics were added at 37 ᵒC in a 5% CO2 incubator: penicillin (100 units/mL) and streptomycin (100 µg/mL). Next, we seeded the cells in a 96 -well plate by a density of 1.0 x 10^4 cells / well at 37 ᵒC for 48 h under 5% CO2. The synthesized compounds with different concentrations were applied into the cell lines and incubated for 48 h. After 48 h, 20 µl of MTT solution (5mg/mL) was added and incubated for 4 h. Then, DMSO (100 µl) was added into each well to dissolve the formed purple formazan. After that, a colorimetric assay was measured and recorded at absorbance of 570 nm using a plate reader (EXL 800, USA). The relative cell viability in percentage was calculated as (A570 of treated samples/A570 of untreated sample) X 100. […]
For orientation: Tetrazolium assays rely on reduction of a dye to a coloured formazan, in cell work by metabolically active cells.

The target of series [2] is T1, Topoisomerase II (Topo II) (Homo sapiens, UniProt P11388).
T1 construct: purchased TopoGEN, Inc., Columbus
T1 sequence (P11388 whole entry): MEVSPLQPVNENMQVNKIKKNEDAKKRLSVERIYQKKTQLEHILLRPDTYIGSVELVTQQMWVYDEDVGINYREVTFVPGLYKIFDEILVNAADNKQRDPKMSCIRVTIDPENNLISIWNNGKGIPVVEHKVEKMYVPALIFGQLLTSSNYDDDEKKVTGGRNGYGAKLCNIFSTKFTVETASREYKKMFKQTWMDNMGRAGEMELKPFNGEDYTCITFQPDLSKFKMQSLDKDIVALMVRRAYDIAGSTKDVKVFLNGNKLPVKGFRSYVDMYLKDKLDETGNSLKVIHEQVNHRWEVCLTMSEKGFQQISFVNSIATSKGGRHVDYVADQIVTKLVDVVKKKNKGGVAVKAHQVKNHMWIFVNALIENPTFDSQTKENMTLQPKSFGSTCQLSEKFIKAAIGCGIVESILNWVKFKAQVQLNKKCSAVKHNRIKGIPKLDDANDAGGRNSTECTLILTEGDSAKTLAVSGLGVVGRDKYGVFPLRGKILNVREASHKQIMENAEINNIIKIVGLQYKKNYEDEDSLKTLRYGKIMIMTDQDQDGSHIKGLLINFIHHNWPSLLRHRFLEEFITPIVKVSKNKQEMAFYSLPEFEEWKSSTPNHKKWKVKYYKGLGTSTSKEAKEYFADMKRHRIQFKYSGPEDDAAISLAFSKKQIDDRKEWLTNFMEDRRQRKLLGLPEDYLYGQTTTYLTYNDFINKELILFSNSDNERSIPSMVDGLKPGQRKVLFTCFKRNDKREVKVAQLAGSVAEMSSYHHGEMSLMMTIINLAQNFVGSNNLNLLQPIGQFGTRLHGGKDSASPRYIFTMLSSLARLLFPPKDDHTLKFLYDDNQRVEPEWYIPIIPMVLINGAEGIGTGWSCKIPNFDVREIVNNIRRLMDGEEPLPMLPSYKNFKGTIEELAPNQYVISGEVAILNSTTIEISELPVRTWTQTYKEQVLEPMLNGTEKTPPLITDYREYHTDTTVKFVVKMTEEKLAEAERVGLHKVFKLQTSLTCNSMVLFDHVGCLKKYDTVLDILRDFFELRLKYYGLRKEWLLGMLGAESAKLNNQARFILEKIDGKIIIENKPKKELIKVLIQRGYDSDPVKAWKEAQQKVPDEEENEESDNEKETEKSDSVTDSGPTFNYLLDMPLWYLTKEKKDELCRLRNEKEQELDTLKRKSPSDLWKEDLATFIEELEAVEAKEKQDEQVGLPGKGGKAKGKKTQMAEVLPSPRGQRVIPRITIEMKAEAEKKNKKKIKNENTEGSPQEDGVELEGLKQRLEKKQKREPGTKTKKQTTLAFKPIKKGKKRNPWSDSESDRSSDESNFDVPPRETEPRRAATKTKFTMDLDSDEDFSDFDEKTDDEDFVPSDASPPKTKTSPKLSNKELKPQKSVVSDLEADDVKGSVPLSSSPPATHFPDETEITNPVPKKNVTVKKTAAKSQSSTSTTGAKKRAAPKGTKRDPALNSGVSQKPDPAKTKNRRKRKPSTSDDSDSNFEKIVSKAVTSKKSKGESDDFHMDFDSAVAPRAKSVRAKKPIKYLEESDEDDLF
As to the kind of experiment: In vitro Topo II inhibitory assay (TopoGEN Topo II drug screening kit). The class given is biochemical. How it is done:
The reported method described by Patra et al was applied using Topo II drug screening kit (TopoGEN, Inc., Columbus).
A typical enzyme reaction was structured to determine Topo II activity. The reaction mixture included Topo II (2 μl), substrate super coiled pHot1 DNA (0.25 μg), 50 μg/ml test compound (2 μl), and assay buffer (4 μl). To start the reaction, the mixture was allowed to incubate in 37°C for 30 min. To terminate the reaction, a mixture of 10% sodium dodecylsulphate (2 μl) and proteinase K (50 μg/mL) was added at 37°C for 15 min. then incubated for 15 min at 37°C.
(§10) After that, the DNA was run on 1% agarose gel in BioRad gel electrophoresis system for 1–2 h followed by staining with GelRedTM stain for 2 h and destained for 15 min with TAE buffer. The gel was imaged via BioRad’s Gel DocTMEZ system. Both supercoiled and linear strands DNA were incorporated in the gel as markers for DNA-Topo II intercalators. The results of IC50 values were calculated using the GraphPad Prism version 7. Each reaction was performed in duplicate, and at least three independent determinations of each IC50 were made. […]
S2.2. Measurement of topoisomerase II Activity […]
analyzed for their Topo II inhibitory activities. The reported method described by Patra et al was applied using Topo II drug screening kit (TopoGEN, Inc., Columbus).
A typical enzyme reaction was structured to determine Topo II activity. The reaction mixture included Topo II (2 µl), substrate super coiled pHot1 DNA (0.25 µg), 50 µg/ml test compound (2 µl), and assay buffer (4 µl). To start the reaction, the mixture was allowed to incubate in 37 °C for 30 min. To terminate the reaction, a mixture of 10% sodium dodecylsulphate (2 µl) and proteinase K (50 µg/mL) was added at 37 °C for 15 min. then incubated for 15 min at 37 °C.
as §10

The test system of series [3] is HepG2 cell line. As to the kind of experiment: MTT anti-proliferative assay, HepG2. The class given is cell-based. Conditions: Homo sapiens, 48 h, three independent experiments, read-out: In vitro cytotoxicity IC50, HepG2. How it is done:
as §1, §2, §3, §4, §5, §6, §7, §8, §9

The subject of series [4] is Activated Calf Thymus DNA. As to the kind of experiment: DNA/methyl green assay (DNA intercalation). The class given is binding. Particulars: for IC50: 50% inhibition concentration of DNA/methyl green assay, read-out: DNA/Methyl green (IC50); for LogIC50 (best-fit value, DNA/Topo-II Inhibition (%) curve): log of drug concentration in uM; for LogIC50 (best-fit value, DNA/Topo-II Inhibition (%) curve) / HillSlope (best-fit value, DNA/Topo-II Inhibition (%) curve): supplement curve fit. The protocol:
The most promising members (13a, 14a, 16, 17, 18, 19, and 20) were further investigated for their binding affinity against DNA. […] The results of DNA-binding affinities were reported in Table 1 as IC50 values calculated from the concentration-inhibition response curve.
Activated Calf Thymus DNA (Merk, Germany) was treated with methyl green (Merk, Germany), then the synthesized compounds were applied to displace the methyl green dye, producing equivalent color.
After that, the DNA was run on 1% agarose gel in BioRad gel electrophoresis system for 1–2 h followed by staining with GelRedTM stain for 2 h and destained for 15 min with TAE buffer. The gel was imaged via BioRad’s Gel DocTMEZ system. Both supercoiled and linear strands DNA were incorporated in the gel as markers for DNA-Topo II intercalators. The results of IC50 values were calculated using the GraphPad Prism version 7. Each reaction was performed in duplicate, and at least three independent determinations of each IC50 were made.
S2.3. DNA/Methyl Green Assay […]
methyl green dye method described by Burres et al. Activated Calf Thymus DNA (Merk, Germany) was treated with methyl green (Merk, Germany), then the synthesized compounds were applied to displace the methyl green dye, producing equivalent color. […]

For series [5], the system named is HepG2 cell line. Further details: method as in PMID 32882440. Conditions: previous work of the authors; read-out: In vitro cytotoxicity IC50, HepG2; cited from earlier work.
The test system of series [6] is Activated Calf Thymus DNA. Further details: method as in PMID 32882440. Particulars: previous work of the authors; read-out: DNA/Methyl green (IC50); cited from earlier work.
Series [7] concerns the target T1, Topoisomerase II (Topo II). Further details: method as in PMID 32882440. Conditions: previous work of the authors; cited from earlier work.
Series [8] has as its system HCT-116 cell line. Further details: method as in PMID 32882440. Particulars: previous work of the authors; read-out: In vitro cytotoxicity IC50, HCT-116; cited from earlier work.

On to `Cc1ccc(-c2nnc3c4ccccc4nc(N(C)C)n23)cc1` [Compound 13a, N,N-Dimethyl-3-(p-tolyl)-[1,2,4]triazolo[4,3-c]quinazolin-5-amine], for which the IC50 with HCT-116 cell line [1] was found to be 11.6 ± 0.5 µM; in series [2], 36.1 ± 1.9 µM; in the series with HepG2 cell line [3], 10.7 ± 0.6 µM; in series [4], 52.9 ± 1.6 µM. Further, the “LogIC50 (best-fit value, DNA/Topo-II Inhibition (%) curve)” value in series [4] is on record as 1.723. The “HillSlope (best-fit value, DNA/Topo-II Inhibition (%) curve)” value in series [4] is given as 0.4587.

In the case of `Cc1ccc(-c2nnc3c4ccccc4nc(NC4CCCCC4)n23)cc1` [Compound 14a, N-Cyclohexyl-3-(p-tolyl)-[1,2,4]triazolo[4,3-c]quinazolin-5-amine], the IC50 with HCT-116 cell line [1] is 7.66 ± 0.2 µM; in series [2], 30.4 ± 1.8 µM; with HepG2 cell line [3], 13 ± 0.5 µM; in series [4], 22.5 ± 0.9 µM. Further, the “LogIC50 (best-fit value, DNA/Topo-II Inhibition (%) curve)” value in series [4] came to 1.353. Further, in series [4], the “HillSlope (best-fit value, DNA/Topo-II Inhibition (%) curve)” value came to 0.4583.

In the case of `OCCNc1nc2ccccc2c2nnc(C(F)(F)F)n12` [Compound 17, 2-((3-(Trifluoromethyl)-[1,2,4]triazolo[4,3-c]quinazolin-5-yl)amino)ethan-1-ol], the IC50 with HCT-116 cell line [1] amounted to 2.78 ± 0.1 µM; in series [2] it was 17.7 ± 0.8 µM; in the series with HepG2 cell line [3] it was 5.65 ± 0.1 µM; in series [4], 11.1 ± 0.7 µM. The “LogIC50 (best-fit value, DNA/Topo-II Inhibition (%) curve)” value in series [4] turned out to be 1.045. Besides, in series [4], the “HillSlope (best-fit value, DNA/Topo-II Inhibition (%) curve)” value came to 0.4423.

Regarding `CN(C)c1nc2ccccc2c2nnc(C(F)(F)F)n12` [Compound 18, N,N-Dimethyl-3-(trifluoromethyl)-[1,2,4]triazolo[4,3-c]quinazolin-5-amine], the IC50 with HCT-116 cell line [1] turned out to be 4.17 ± 0.1 µM; in series [2], 18.3 ± 0.8 µM; with HepG2 cell line [3] it was 6.82 ± 0.2 µM; in series [4] it was 12.5 ± 0.6 µM. The “LogIC50 (best-fit value, DNA/Topo-II Inhibition (%) curve)” value in series [4] is on record as 1.098. Besides, the “HillSlope (best-fit value, DNA/Topo-II Inhibition (%) curve)” value in series [4] stood at 0.3961.

With `FC(F)(F)c1nnc2c3ccccc3nc(NC3CCCCC3)n12` [Compound 19, N-Cyclohexyl-3-(trifluoromethyl)-[1,2,4]triazolo[4,3-c]quinazolin-5-amine], the IC50 in the series on HCT-116 cell line [1] came out at 9.43 ± 0.3 µM; in series [2] it was 18.7 ± 0.9 µM; in the series with HepG2 cell line [3] it was 8.91 ± 0.2 µM; in series [4], 23.6 ± 1.3 µM. For the same compound, the “LogIC50 (best-fit value, DNA/Topo-II Inhibition (%) curve)” value in series [4] came out at 1.373. Further, the “HillSlope (best-fit value, DNA/Topo-II Inhibition (%) curve)” value in series [4] was 0.3612.

`FC(F)(F)c1nnc2c3ccccc3nc(N3CCOCC3)n12` [Compound 20, 4-(3-(Trifluoromethyl)-[1,2,4]triazolo[4,3-c]quinazolin-5-yl)morpholine]: the IC50 came out at 4.61 ± 0.2 µM with HCT-116 cell line [1], 20.6 ± 0.9 µM in series [2], 8.34 ± 0.3 µM in the series with HepG2 cell line [3] and 34.5 ± 1.2 µM in series [4]. Moreover, the “LogIC50 (best-fit value, DNA/Topo-II Inhibition (%) curve)” value in series [4] is recorded as 1.538. Also, the “HillSlope (best-fit value, DNA/Topo-II Inhibition (%) curve)” value in series [4] is 0.3425.

In the case of `O=C(CSc1nnc2c3ccccc3c(=O)n(CC(=O)Nc3ccc(C(=O)O)cc3)n12)Nc1ccc(C(=O)O)cc1` [VIIa], the IC50 was 3.91 ± 0.15 µM with HepG2 cell line [5], 48.3 ± 2.3 µM in series [6], 7.45 ± 0.44 µM in series [7] and 2.62 ± 0.1 µM in the series on HCT-116 cell line [8].
